Measured values from US10532066B2, “Surfactant lipids, compositions thereof, and uses thereof” (National Jewish Health, priority 2007, dated 2020).
“Also recorded” adds a separate entry of the source.

How the values were obtained:
TLR1 = biological target: T1, TLR1 (Homo sapiens, UniProt Q15399); assay: TLR agonist IL-8 production in primary human neutrophils, TLR1; format: cell-based; parameters: endogenous in cells; host or cells: primary human neutrophils; details: Pam3Cys, 5-24 h
T1 sequence (Q15399 25-786): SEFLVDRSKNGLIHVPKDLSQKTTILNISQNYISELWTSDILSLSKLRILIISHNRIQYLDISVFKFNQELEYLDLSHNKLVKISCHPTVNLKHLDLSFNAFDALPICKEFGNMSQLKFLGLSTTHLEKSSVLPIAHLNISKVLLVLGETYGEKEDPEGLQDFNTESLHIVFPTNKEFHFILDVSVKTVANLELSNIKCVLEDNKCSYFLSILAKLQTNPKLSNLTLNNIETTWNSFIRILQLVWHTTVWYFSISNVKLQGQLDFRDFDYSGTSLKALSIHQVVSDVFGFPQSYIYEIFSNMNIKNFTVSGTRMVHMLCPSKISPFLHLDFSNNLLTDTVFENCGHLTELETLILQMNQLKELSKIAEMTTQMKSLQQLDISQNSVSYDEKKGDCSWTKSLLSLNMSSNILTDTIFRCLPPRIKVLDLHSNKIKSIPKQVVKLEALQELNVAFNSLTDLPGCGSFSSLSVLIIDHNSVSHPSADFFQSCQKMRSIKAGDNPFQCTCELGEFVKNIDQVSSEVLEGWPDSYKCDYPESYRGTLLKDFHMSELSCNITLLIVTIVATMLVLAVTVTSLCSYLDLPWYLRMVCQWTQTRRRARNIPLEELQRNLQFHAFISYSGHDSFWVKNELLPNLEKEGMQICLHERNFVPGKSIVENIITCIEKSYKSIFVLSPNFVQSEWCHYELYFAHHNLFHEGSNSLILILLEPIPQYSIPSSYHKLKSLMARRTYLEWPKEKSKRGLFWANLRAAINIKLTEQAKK
Experimental: (§1) In this experiment, multiple TLRs were stimulated with defined TLR agonists for 5-24 h as indicated, and the IL-8 production was measured. In each case the maximal stimulation by agonist is set at 100% and the antagonism by POPG is expressed as the relative % response. The Controls consist of no treatment, or treatment with POPG, in the absence of agonist as indicated. The agonists for the TLRs consist of Pam3Cys for TLR1/2, double stranded RNA (poly IC) for TLR3, Gram-negative lipopolysaccharide (LPS) for TLR4, and single stranded RNA (polyU) for TLR7/8.

TLR7 = assay: TLR agonist IL-8 production in primary human neutrophils, TLR7; format: cell-based; details: polyU, 5-24 h
Experimental: as §1

BALB/c mice = assay: Sepsis model: intravenous LPS, intratracheal phospholipids; format: in vivo, mouse; details: LPS 50 μg i.v., phospholipids 50 μg intratracheal, 3 h
Experimental: FIG. 10. Anionic phospholipids modulate lung inflammation induced by intravenously administered LPS. Phospholipids were dried under nitrogen and hydrated, and liposomes were formed using a Liposofast™. […] At the same time, LPS (50 μg) in 200 μl of PBS was intravenously administered to mice.
Next, the effect of phospholipids were examined in a sepsis model in mice. LPS (50 μG/200 μl) was intravenously administered to mice via the tail vein and phospholipids were administered intratracheally at the same time. Three hours after stimulation, BALF was collected (FIG. 10).

RSV = RSV plaque progression in Hep2 monolayers, lipid in agar overlay; format: cell-based, Respiratory Syncytial Virus (RSV); details: lipid in agar overlay 5 hours after virus, POPG 200-500 ug/ml, POPC 500 ug/ml, 5 days
Experimental: Monolayers of Hep2 cells were subjected to RSV infection at levels that produce ca 100 plaques per well in quantitative plaque assays. The virus was incubated with the cells for 5 hours prior to agar overlay. The agar overlays contained either no additions, or POPG (200-500 ug/ml) or POPC (500 ug/ml).
The effects of POPG upon plaque formation as shown in Panel a of FIG. 39 were quantified in 3 independent experiments and are presented in this figure. The left panel of FIG. 40 provides the numbers of definite, and minute indefinite plaques formed in the absence and presence of POPG (200-500 ug/ml) as indicated. The right panel of FIG. 40 provides the numbers of definite plaques observed in the absence and presence of either POPG or POPC (200-500 ug/ml) as indicated.

TLR6 = biological target: T2, TLR6 (Mus musculus, UniProt Q9EPW9); assay: TLR agonist TNFα production in RAW 264.7 cells, TLR6; format: cell-based; details: MALP2, 24 h
T2 construct: endogenous in cells; host or cells: RAW 264.7
Experimental: In this experiment, multiple TLRs were stimulated with defined TLR agonists for 24 h and the TNFα production was measured. In each case, the maximal stimulation by agonist is set at 100% and the antagonism by POPG is expressed as the relative % response. The Controls consist of no treatment, or treatment with POPG in the absence of agonist as indicated. The agonists for the TLRs consist of Pam3Cys for TLR1/2, Mycoplasma pneumoniae membranes as an agonist for TLR2, mycoplasma derived MALP2 as an agonist for TLR 2/6, double stranded RNA (poly IC) for TLR3, Gram-negative lipopolysaccharide for TLR4, and CpG rich DNA as an agonist for TLR9. The TLR4 panel also contains the antagonist polymyxin B (PB) for comparison with POPG.

[1] = test system: Respiratory Syncytial Virus (RSV); assay: RSV replication in BEAS2B cells (anti-RSV antibody staining); format: cell-based; details: multiplicity 3, 72 h, POPG 200 ug/ml
Experimental: Monolayers of BEAS2B and NHBE cells were infected with RSV at a multiplicity of 3 for 72 h. Infections were performed on cells in either the absence or the presence of POPG (200 ug/ml). The cell monolayers were fixed and stained with goat anti-human RSV antibody conjugated with horseradish peroxidase. The presence of the antibody was detected with diaminobenzamidine. Controls consisted of cell layers not exposed to the virus or exposed to POPG in the absence of virus as indicated.

T2 sequence (Q9EPW9 28-795): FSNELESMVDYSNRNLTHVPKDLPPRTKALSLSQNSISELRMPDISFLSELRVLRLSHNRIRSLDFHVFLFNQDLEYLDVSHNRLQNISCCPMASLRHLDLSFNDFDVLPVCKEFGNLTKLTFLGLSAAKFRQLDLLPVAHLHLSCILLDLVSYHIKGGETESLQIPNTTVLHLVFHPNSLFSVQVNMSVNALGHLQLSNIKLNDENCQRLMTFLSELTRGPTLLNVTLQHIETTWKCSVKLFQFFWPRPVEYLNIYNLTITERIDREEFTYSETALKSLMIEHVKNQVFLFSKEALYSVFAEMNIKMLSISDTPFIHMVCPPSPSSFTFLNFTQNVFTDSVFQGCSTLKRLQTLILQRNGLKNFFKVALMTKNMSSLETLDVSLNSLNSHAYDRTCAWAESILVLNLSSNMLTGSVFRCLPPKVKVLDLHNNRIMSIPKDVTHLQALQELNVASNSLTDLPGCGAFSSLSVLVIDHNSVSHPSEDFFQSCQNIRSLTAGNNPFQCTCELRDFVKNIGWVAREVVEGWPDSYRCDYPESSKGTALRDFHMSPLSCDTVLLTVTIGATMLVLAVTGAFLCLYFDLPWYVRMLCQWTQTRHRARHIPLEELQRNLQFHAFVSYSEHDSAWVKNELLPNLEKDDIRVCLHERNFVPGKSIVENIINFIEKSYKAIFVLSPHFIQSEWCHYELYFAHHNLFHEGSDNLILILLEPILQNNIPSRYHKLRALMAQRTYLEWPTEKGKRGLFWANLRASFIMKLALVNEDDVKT

## CCCCCCCC/C=C\CCCCCCCC(=O)O[C@H](COC(=O)CCCCCCCCCCCCCCC)COP(=O)(O)OCC(O)CO (stereo partly drawn) [POPG, palmitoyl-oleoyl-phosphatidylglycerol]
TLR1
  activity of TLR1 (IL-8 production): inhibits
TLR7
  activity of TLR7 (IL-8 production): inhibits
BALB/c mice
  KC levels in BALF: significantly attenuated
  MIP-2 levels in BALF: significantly attenuated
  TNF-α secretion in BALF: significantly inhibited
  infiltration of neutrophils in BALF: effectively inhibited
RSV
  progression of RSV infection (plaques): arrests the progression; also recorded: indefinite minute plaques
TLR6
  activity of TLR6 (TNFα production): inhibits
[1]
  viral replication: prevents viral replication
